In patent US20240294531A1, “COVALENT HETEROCYCLES AND USES THEREOF” (Kumquat Biosciences Inc., priority 2022, published 2024):

Legend:
[1] = molecular target: BTK C481S protein (Homo sapiens (Human), UniProt Q06187, C481S); test: BTK C481S HTRF displacement assay; format: binding; details: 1-hour incubation
How it was run: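 Tracer displacement read by HTRF after 1 hour at room temperature: GST-BTK C481S 2-659, 50 nM tracer 239 (Kd 54 nM), anti-GST antibody, compound in six four-fold doses from 5 μM. Percent inhibition versus DMSO fitted (bottom 0, top 100) for IC50, converted to KI via Cheng-Prusoff.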

[2] = molecular target: BTK wildtype protein (Homo sapiens (Human), UniProt Q06187); test: BTK wildtype HTRF displacement assay; format: binding; details: 1-hour incubation; read-out: BTK (wt) IC50
How it was run: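 Tracer-displacement HTRF format: compound and tracer 239 compete at the BTK active site, detected via anti-GST-Tb on GST-tagged full-length enzyme. One-hour room-temperature incubation; compounds dosed at six four-fold steps down from 5 μM. Percent inhibition versus DMSO gives IC50 by constrained four-parameter logistic fit.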

Chain of BTK C481S protein (Q06187 2-659 C481S): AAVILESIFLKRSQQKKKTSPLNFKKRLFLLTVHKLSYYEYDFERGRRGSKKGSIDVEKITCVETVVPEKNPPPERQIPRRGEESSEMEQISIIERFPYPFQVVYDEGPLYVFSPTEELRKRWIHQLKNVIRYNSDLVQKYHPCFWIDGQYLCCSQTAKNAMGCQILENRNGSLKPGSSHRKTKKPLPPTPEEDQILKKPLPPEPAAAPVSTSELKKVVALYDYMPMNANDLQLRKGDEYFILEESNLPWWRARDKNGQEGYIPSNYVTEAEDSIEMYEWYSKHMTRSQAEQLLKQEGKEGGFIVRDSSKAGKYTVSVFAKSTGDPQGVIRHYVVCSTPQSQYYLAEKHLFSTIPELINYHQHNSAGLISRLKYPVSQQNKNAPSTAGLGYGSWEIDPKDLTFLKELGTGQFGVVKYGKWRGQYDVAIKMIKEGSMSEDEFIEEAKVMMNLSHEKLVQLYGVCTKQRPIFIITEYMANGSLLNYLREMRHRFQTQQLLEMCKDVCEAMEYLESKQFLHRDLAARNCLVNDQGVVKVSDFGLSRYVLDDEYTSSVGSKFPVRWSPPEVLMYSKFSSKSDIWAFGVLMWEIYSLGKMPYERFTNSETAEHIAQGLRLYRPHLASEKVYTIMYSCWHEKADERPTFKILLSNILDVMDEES
Chain of BTK wildtype protein (Q06187 2-659): as the sequence (Q06187 2-659 C481S) above, with S480C counted along it

Compound	IC50 [1] [nM]	IC50 [2] [nM]
COc1ccc(F)cc1C(=O)NCc1ccc(-c2nn(C3CCCN(C(=O)n4cncn4)C3)c(N)c2C(N)=O)cc1 (centres unmarked) [Compound 124, 1-(1-(1H-1,2,4-triazole-1-carbonyl)piperidin-3-yl)-5-amino-3-(4-((5-fluoro-2-methoxybenzamido)methyl)phenyl)-1H-pyrazole-4-carboxamide]	≤ 1000	≤ 1000
CN(C(=O)n1cncn1)C1CCC2C(CNc3c(C(N)=O)c(-c4ccc(Oc5ccccc5)cc4)nn32)C1 (centres unmarked) [Compound 199, 7-(N-methyl-1H-1,2,4-triazole-1-carboxamido)-2-(4-phenoxyphenyl)-4,5,5a,6,7,8,9,9a-octahydro-pyrazolo[1,5-a]quinazoline-3-carboxamide]	≤ 1000	≤ 1000
CN(C(=O)n1cncn1)C1CCC2CNc3c(C(N)=O)c(-c4ccc(Oc5ccccc5)cc4)nn3C2C1 (centres unmarked) [Compound 234, 8-(N-methyl-1H-1,2,4-triazole-1-carboxamido)-2-(4-phenoxyphenyl)-4,5,5a,6,7,8,9,9a-octahydro-pyrazolo[1,5-a]quinazoline-3-carboxamide]	> 1000	> 1000
COc1ccc(F)cc1C(=O)NCc1ccc(-c2nn(C[C@H]3CCCCN3C(=O)n3cncn3)c3ncnc(N)c23)cc1 [Compound 104, (R)-N-(4-(1-((1-(1H-1,2,4-triazole-1-carbonyl)piperidin-2-yl)methyl)-4-amino-1H-pyrazolo[3,4-d]pyrimidin-3-yl)benzyl)-5-fluoro-2-methoxybenzamide]	≤ 1000	> 1000
CC[C@@H](Cn1nc(-c2ccc(CNC(=O)c3cc(F)ccc3OC)cc2)c2c(N)ncnc21)N(C)C(=O)n1cncn1 [Compound 204, (S)-N-(1-(4-amino-3-(4-((5-fluoro-2-methoxybenzamido)methyl)phenyl)-1H-pyrazolo[3,4-d]pyrimidin-1-yl)butan-2-yl)-N-methyl-1H-1,2,4-triazole-1-carboxamide]	≤ 1000	≤ 1000
COc1ccc(F)cc1C(=O)NCc1ccc(-c2nn([C@@H]3CCC[C@@H](N(C)C(=O)n4cncn4)C3)c(N)c2C(N)=O)cc1 (relative stereo) [Compound 194, N-((1R,3R)-3-(5-amino-4-carbamoyl-3-(4-((5-fluoro-2-methoxybenzamido)methyl)phenyl)-1H-pyrazol-1-yl)cyclohexyl)-N-methyl-1H-1,2,4-triazole-1-carboxamide]	≤ 1000	≤ 1000
COc1ccc(C)cc1C(=O)NCc1ccc(-c2nn(C3CCC(N(C)C(=O)n4cncn4)CC3)c3ncnc(N)c23)cc1 (centres unmarked) [Compound 258, N-(4-(4-amino-3-(4-((2-methoxy-5-methylbenzamido)methyl)phenyl)-1H-pyrazolo[3,4-d]pyrimidin-1-yl)cyclohexyl)-N-methyl-1H-1,2,4-triazole-1-carboxamide]	≤ 1000	≤ 1000
CN(C(=O)n1cncn1)c1ccccc1C1CCNc2c(C(N)=O)c(-c3ccc(Oc4ccccc4)cc3)nn21 (centres unmarked) [Compound 305, 7-(2-(N-methyl-1H-1,2,4-triazole-1-carboxamido)phenyl)-2-(4-phenoxyphenyl)-4,5,6,7-tetrahydropyrazolo[1,5-a] pyrimidine-3-carboxamide]	> 1000	> 1000
COc1ccc(F)cc1C(=O)NCc1ccc(-c2nn(C[C@@H]3CCCC[C@H]3CN(C)C(=O)n3cncn3)c3ncnc(N)c23)cc1 [Compound 130, N-(((1R,2R)-2-((4-amino-3-(4-((5-fluoro-2-methoxybenzamido)methyl)phenyl)-1H-pyrazolo [3,4-d]pyrimidin-1-yl)methyl)cyclohexyl)methyl)-N-methyl-1H-1,2,4-triazole-1-carboxamide]	≤ 1000	≤ 1000
NC(=O)c1c(-c2ccc(Oc3ccccc3)cc2)nn2c1NCC[C@H]2[C@@H]1CCCCN1C(=O)n1cncn1 [Compound 223, (S)-7-((S)-1-(1H-1,2,4-triazole-1-carbonyl)piperidin-2-yl)-2-(4-phenoxyphenyl)-4,5,6,7-tetrahydropyrazolo[1,5-a] pyrimidine-3-carboxamide]	> 1000	> 1000
COc1ccc(F)cc1C(=O)NCc1ccc(-c2nn(C[C@H]3C[C@@H](C)CCN3C(=O)n3cnnc3)c(N)c2C(N)=O)cc1 [Compound 212, 5-amino-3-(4-((5-fluoro-2-methoxybenzamido)methyl)phenyl)-1-(((2R,4S)-4-methyl-1-(4H-1,2,4-triazole-4-carbonyl)piperidin-2-yl)methyl)-1H-pyrazole-4-carboxamide]	≤ 1000	≤ 1000
COc1ccc(F)cc1C(=O)NCc1ccc(-c2nn(CC3CCC(O)CN3C(=O)n3cncn3)c3ncnc(N)c23)cc1 (centres unmarked) [Compound 246, N-(4-(4-amino-1-((5-hydroxy-1-(1H-1,2,4-triazole-1-carbonyl)piperidin-2-yl)methyl)-1H-pyrazolo[3,4-d]pyrimidin-3-yl)benzyl)-5-fluoro-2-methoxybenzamide]	≤ 1000	≤ 1000
COC[C@@H](C1CCNc2c(C(N)=O)c(-c3ccc(Oc4ccccc4)cc3)nn21)N(C)C(=O)n1cncn1 (stereo partly drawn) [Compound 285, 7-((R)-2-methoxy-1-(N-methyl-1H-1,2,4-triazole-1-carboxamido)ethyl)-2-(4-phenoxyphenyl)-4,5,6,7-tetrahydropyrazolo [1,5-a]pyrimidine-3-carboxamide]	> 1000	> 1000
COc1ccc(F)cc1C(=O)NCc1ccc(-c2nn(C(CC3CCCCC3)CN(C)C(=O)n3cncn3)c3ncnc(N)c23)cc1 (centres unmarked) [Compound 202, N-(2-(4-amino-3-(4-((5-fluoro-2-methoxybenzamido)methyl)phenyl)-1H-pyrazolo[3,4-d]pyrimidin-1-yl)-3-cyclohexylpropyl)-N-methyl-1H-1,2,4-triazole-1-carboxamide]	> 1000	> 1000
COc1ccc(F)cc1C(=O)NCc1ccc(-c2nn(CC3CCCCN(C(=O)n4cncn4)C3)c(N)c2C(N)=O)cc1 (centres unmarked) [Compound 296, 1-((1-(1H-1,2,4-triazole-1-carbonyl)azepan-3-yl)methyl)-5-amino-3-(4-((5-fluoro-2-methoxybenzamido)methyl)phenyl)-1H-pyrazole-4-carboxamide]	≤ 1000	≤ 1000
CCC(CN(C)C(=O)n1cncn1)n1nc(-c2ccc(CNC(=O)c3cc(F)ccc3OC)cc2)c2c(N)ncnc21 (centres unmarked) [Compound 176, N-(2-(4-amino-3-(4-((5-fluoro-2-methoxybenzamido)methyl)phenyl)-1H-pyrazolo[3,4-d]pyrimidin-1-yl)butyl)-N-methyl-1H-1,2,4-triazole-1-carboxamide]	> 1000	> 1000
COc1ccc(F)cc1C(=O)NCc1ccc(-c2nn(CC3CCN3C(=O)n3cncn3)c(N)c2C(N)=O)cc1 (centres unmarked) [Compound 145, 1-((1-(1H-1,2,4-triazole-1-carbonyl)azetidin-2-yl)methyl)-5-amino-3-(4-((5-fluoro-2-methoxybenzamido)methyl)phenyl)-1H-pyrazole-4-carboxamide]	≤ 1000	≤ 1000

Results, then the compound that gave them:

IC50 [1] [nM]	IC50 [2] [nM]	Compound
> 1000	> 1000	NC(=O)c1cn(C[C@@H]2CCCCN2C(=O)n2cncn2)nc1-c1ccc(Oc2ccccc2)cc1 [Compound 175, (S)-1-((1-(1H-1,2,4-triazole-1-carbonyl)piperidin-2-yl)methyl)-3-(4-phenoxyphenyl)-1H-pyrazole-4-carboxamide]
> 1000	> 1000	COc1ccc(F)cc1C(=O)NCc1ccc(-c2nn(CC3CN(C)CCN3C(=O)n3cncn3)c3ncnc(N)c23)cc1 (centres unmarked) [Compound 178, N-(4-(4-amino-1-((4-methyl-1-(1H-1,2,4-triazole-1-carbonyl)piperazin-2-yl)methyl)-1H-pyrazolo[3,4-d]pyrimidin-3-yl)benzyl)-5-fluoro-2-methoxybenzamide]
> 1000	≤ 1000	COc1ccc(F)cc1C(=O)NCc1ccc(-c2nn(C3(CN(C)C(=O)n4cncn4)CC3)c3ncnc(N)c23)cc1 [Compound 188, N-((1-(4-amino-3-(4-((5-fluoro-2-methoxybenzamido)methyl)phenyl)-1H-pyrazolo[3,4-d]pyrimidin-1-yl)cyclopropyl)methyl)-N-methyl-1H-1,2,4-triazole-1-carboxamide]
≤ 1000	≤ 1000	CN(CCC1CCNc2c(C(N)=O)c(-c3ccc(Oc4ccccc4)cc3)nn21)C(=O)n1cncn1 (centres unmarked) [Compound 244, 7-(2-(N-methyl-1H-1,2,4-triazole-1-carboxamido)ethyl)-2-(4-phenoxyphenyl)-4,5,6,7-tetrahydropyrazolo[1,5-a] pyrimidine-3-carboxamide]
≤ 1000	≤ 1000	COc1ccc(F)cc1C(=O)NCc1ccc(-c2nn(C[C@@H]3CCCCN3C(=O)n3cncn3)c3[nH]c(=O)[nH]c(=O)c23)cc1 [Compound 164]
> 1000	> 1000	COc1ccc(F)cc1C(=O)NCc1ccc(-c2nn(C(CC(F)F)CN(C)C(=O)n3cncn3)c3ncnc(N)c23)cc1 (centres unmarked) [Compound 257, N-(2-(4-amino-3-(4-((5-fluoro-2-methoxybenzamido)methyl)phenyl)-1H-pyrazolo[3,4-d]pyrimidin-1-yl)-4,4-difluorobutyl)-N-methyl-1H-1,2,4-triazole-1-carboxamide]
> 1000	> 1000	NC(=O)c1nn2c(C3CCCCN3C(=O)n3cncn3)ccnc2c1-c1ccc(Oc2ccccc2)cc1 (centres unmarked) [Compound 277, 7-(1-(1H-1,2,4-triazole-1-carbonyl)piperidin-2-yl)-3-(4-phenoxy-phenyl)pyrazolo[1,5-a]pyrimidine-2-carboxamide]
> 1000	> 1000	COc1ccc(F)cc1C(=O)NCc1ccc(-c2nn(C(Cc3ccncc3)CN(C)C(=O)n3cncn3)c3ncnc(N)c23)cc1 (centres unmarked) [Compound 281]
